The values that follow come from patent publication US9902702B2, “Spirocycloheptanes as inhibitors of rock” (BRISTOL-MYERS SQUIBB COMPANY, priority 2014, dated 2018).

Sequence of ROCK2 (O75116 whole entry, species assumed): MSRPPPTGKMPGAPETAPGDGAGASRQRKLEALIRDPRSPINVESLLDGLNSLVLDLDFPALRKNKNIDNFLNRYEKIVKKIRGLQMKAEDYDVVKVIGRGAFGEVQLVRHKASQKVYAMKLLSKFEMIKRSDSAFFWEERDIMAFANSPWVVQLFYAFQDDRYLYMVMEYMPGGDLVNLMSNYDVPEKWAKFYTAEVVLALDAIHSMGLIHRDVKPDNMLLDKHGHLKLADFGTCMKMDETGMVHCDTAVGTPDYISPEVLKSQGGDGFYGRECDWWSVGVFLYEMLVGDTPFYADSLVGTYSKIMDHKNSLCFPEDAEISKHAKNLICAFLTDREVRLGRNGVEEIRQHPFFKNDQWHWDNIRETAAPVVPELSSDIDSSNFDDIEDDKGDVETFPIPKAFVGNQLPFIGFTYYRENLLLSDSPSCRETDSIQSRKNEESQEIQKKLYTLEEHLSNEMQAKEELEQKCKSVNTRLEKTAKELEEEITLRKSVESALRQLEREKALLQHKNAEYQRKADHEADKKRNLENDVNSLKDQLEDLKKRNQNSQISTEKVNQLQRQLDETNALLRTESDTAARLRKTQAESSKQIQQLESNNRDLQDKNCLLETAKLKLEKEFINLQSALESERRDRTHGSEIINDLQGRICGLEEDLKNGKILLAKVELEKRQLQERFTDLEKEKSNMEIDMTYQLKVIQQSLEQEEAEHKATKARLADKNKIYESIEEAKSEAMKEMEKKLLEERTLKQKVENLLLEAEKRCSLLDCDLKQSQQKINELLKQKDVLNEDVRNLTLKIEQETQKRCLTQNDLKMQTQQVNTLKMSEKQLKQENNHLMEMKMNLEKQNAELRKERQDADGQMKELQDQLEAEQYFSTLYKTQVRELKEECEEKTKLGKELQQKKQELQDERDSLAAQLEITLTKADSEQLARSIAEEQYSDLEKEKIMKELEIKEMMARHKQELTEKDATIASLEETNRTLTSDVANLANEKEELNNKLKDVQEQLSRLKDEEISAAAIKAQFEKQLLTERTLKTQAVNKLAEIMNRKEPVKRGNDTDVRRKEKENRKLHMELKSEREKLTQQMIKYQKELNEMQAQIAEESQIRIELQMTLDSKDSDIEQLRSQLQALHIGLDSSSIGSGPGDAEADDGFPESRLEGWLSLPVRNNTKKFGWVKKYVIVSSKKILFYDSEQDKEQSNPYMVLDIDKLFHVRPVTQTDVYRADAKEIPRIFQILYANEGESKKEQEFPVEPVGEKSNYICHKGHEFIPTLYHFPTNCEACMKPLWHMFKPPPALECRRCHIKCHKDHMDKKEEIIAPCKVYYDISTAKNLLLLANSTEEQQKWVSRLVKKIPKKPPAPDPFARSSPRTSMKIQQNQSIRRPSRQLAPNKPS

The experiment deals with ROCK2 (Homo sapiens, UniProt O75116). The experiment in a line: ROCK assay: phosphorylation of FITC peptide substrate, LABCHIP 3000 mobility shift. The settings on record: 5 μM ATP, 1.5 μM peptide substrate; read-out: ROCK2 Activity (ROCK IC50 range). Type of experiment: biochemical. In short, it runs like this:
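IC50 values come from curve-fitting percent kinase inhibition across a compound dilution series. The reaction is started with Rho kinase variant in HEPES pH 7.5 buffer with MgCl2, Brij-35 and DTT, with 5 μM ATP, 1.5 μM FITC-labelled peptide and under 2% DMSO. After EDTA quench, product and substrate are separated by microfluidic mobility shift.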
Broadly, the IC50 is the concentration that gives 50% inhibition. Regarding `COCC(O)COc1ccn2ncc(C(=O)NC3CC4(C3)CC(c3n[nH]c(=O)c5ccccc35)C4)c2c1` [Example 75, 5-(2-hydroxy-3-methoxypropoxy)-N-((aR)-6-(4-oxo-3,4-dihydrophthalazin-1-yl)spiro[3.3]heptan-2-yl)pyrazolo[1,5-a]pyridine-3-carboxamide], the IC50 fell in the range of 15.1 to 100 nM. To `O=C(NC1CC2(C1)CC(c1n[nH]c(=O)c3ccccc13)C2)c1cnn2cc(N3CCOCC3)ccc12` [Example 76, 6-morpholino-N-((aR)-6-(4-oxo-3,4-dihydrophthalazin-1-yl)spiro[3.3]heptan-2-yl)pyrazolo[1,5-a]pyridine-3-carboxamide] belongs 2.01 to 5 nM; to `O=C(NC1CC2(C1)CC(c1n[nH]c(=O)c3ccccc13)C2)c1cnn2ccc(OCCO)cc12` [Example 77, 5-(2-hydroxyethoxy)-N-((aR)-6-(4-oxo-3,4-dihydrophthalazin-1-yl)spiro[3.3]heptan-2-yl)pyrazolo[1,5-a]pyridine-3-carboxamide], 15.1 to 100 nM.

In the case of `O=C(NC1CC2(C1)CC(c1n[nH]c(=O)c3ccccc13)C2)c1onc2ccccc12` [Example 78, N-((aR)-6-(4-oxo-3,4-dihydrophthalazin-1-yl)spiro[3.3]heptan-2-yl)benzo[c]isoxazole-3-carboxamide], the IC50 lay within 5.1 to 15 nM. Then `O=C(NC1CC2(C1)CC(c1n[nH]c(=O)c3ccccc13)C2)c1cnn2cc(OC(F)F)ccc12` [Example 79, 6-(difluoromethoxy)-N-((aR)-6-(4-oxo-3,4-dihydrophthalazin-1-yl)spiro[3.3]heptan-2-yl)pyrazolo[1,5-a]pyridine-3-carboxamide], with 2.01 to 5 nM; and `O=C(NC1CC2(C1)CC(c1n[nH]c(=O)c3ccccc13)C2)c1cnn2cc(OCC(F)F)ccc12` [Example 80, 6-(2,2-difluoroethoxy)-N-((aR)-6-(4-oxo-3,4-dihydrophthalazin-1-yl)spiro[3.3]heptan-2-yl)pyrazolo[1,5-a]pyridine-3-carboxamide], with 0.2 to 2 nM; and `O=C(NC1CC2(C1)CC(c1n[nH]c(=O)c3ccccc13)C2)c1cnn2cc(OCCn3cccn3)ccc12` [Example 81, 6-(2-(1H-pyrazol-1-yl)ethoxy)-N-((aR)-6-(4-oxo-3,4-dihydrophthalazin-1-yl)spiro[3.3]heptan-2-yl)pyrazolo[1,5-a]pyridine-3-carboxamide], with 0.2 to 2 nM. Then `O=C(NC1CC2(C1)CC(c1n[nH]c(=O)c3ccccc13)C2)c1cnn2cc(N3CCC(F)(F)CC3)ccc12` [Example 82, 6-(4,4-difluoropiperidin-1-yl)-N-((aR)-6-(4-oxo-3,4-dihydrophthalazin-1-yl)spiro[3.3]heptan-2-yl)pyrazolo[1,5-a]pyridine-3-carboxamide], with 2.01 to 5 nM; and `O=C(NC1CC2(C1)CC(c1n[nH]c(=O)c3ccccc13)C2)c1cnn2cc(OCCN3CCCC3)ccc12` [Example 83, N-((aR)-6-(4-oxo-3,4-dihydrophthalazin-1-yl)spiro[3.3]heptan-2-yl)-6-(2-(pyrrolidin-1-yl)ethoxy)pyrazolo[1,5-a]pyridine-3-carboxamide], with 0.2 to 2 nM.

For the molecule `O=C(NC1CC2(C1)CC(c1n[nH]c(=O)c3ccccc13)C2)c1cnn2ccc(N3CCOCC3)cc12` [Example 84, 5-morpholino-N-((aR)-6-(4-oxo-3,4-dihydrophthalazin-1-yl)spiro[3.3]heptan-2-yl)pyrazolo[1,5-a]pyridine-3-carboxamide], the IC50 lay within 5.1 to 15 nM. To `Cn1cc(-c2ccn3ncc(C(=O)NC4CC5(C4)CC(c4n[nH]c(=O)c6ccccc46)C5)c3c2)cn1` [Example 85, 5-(1-methyl-1H-pyrazol-4-yl)-N-((aR)-6-(4-oxo-3,4-dihydrophthalazin-1-yl)spiro[3.3]heptan-2-yl)pyrazolo[1,5-a]pyridine-3-carboxamide] belongs 2.01 to 5 nM; to `CN1CCN(c2ccc3c(C(=O)NC4CC5(C4)CC(c4n[nH]c(=O)c6ccccc46)C5)cnn3c2)CC1` [Example 86, 6-(4-methylpiperazin-1-yl)-N-((aR)-6-(4-oxo-3,4-dihydrophthalazin-1-yl)spiro[3.3]heptan-2-yl)pyrazolo[1,5-a]pyridine-3-carboxamide], 0.2 to 2 nM.

On to `O=C(NC1CC2(C1)CC(c1n[nH]c(=O)c3ccccc13)C2)c1cnn2cc(N3CCCC3)ccc12` [Example 87, N-((aR)-6-(4-oxo-3,4-dihydrophthalazin-1-yl)spiro[3.3]heptan-2-yl)-6-(pyrrolidin-1-yl)pyrazolo[1,5-a]pyridine-3-carboxamide], for which the IC50 is 0.2 to 2 nM.

In the case of `O=C(NC1CC2(C1)CC(c1n[nH]c(=O)c3ccccc13)C2)c1cnn2cc(N3CCC(F)C3)ccc12` [Example 88, 6-((R)-3-fluoropyrrolidin-1-yl)-N-((aR)-6-(4-oxo-3,4-dihydrophthalazin-1-yl)spiro[3.3]heptan-2-yl)pyrazolo[1,5-a]pyridine-3-carboxamide], the IC50 lay in the range of 0.2 to 2 nM.

Consider `O=C(NC1CC2(C1)CC(c1n[nH]c(=O)c3ccccc13)C2)c1cnn2cc(N3CCC(F)C3)ccc12` [Example 89, 6-((S)-3-fluoropyrrolidin-1-yl)-N-((aR)-6-(4-oxo-3,4-dihydrophthalazin-1-yl)spiro[3.3]heptan-2-yl)pyrazolo[1,5-a]pyridine-3-carboxamide], for which the IC50 was 0.2 to 2 nM. On to `O=C(NC1CC2(C1)CC(c1n[nH]c(=O)c3ccccc13)C2)c1cnn2cc(N3CCC(F)(F)C3)ccc12` [Example 90, 6-(3,3-difluoropyrrolidin-1-yl)-N-((aR)-6-(4-oxo-3,4-dihydrophthalazin-1-yl)spiro[3.3]heptan-2-yl)pyrazolo[1,5-a]pyridine-3-carboxamide], for which the IC50 is 0.2 to 2 nM. With `O=C(NC1CC2(C1)CC(c1n[nH]c(=O)c3ccccc13)C2)c1cnn2cc(N3CC(F)C3)ccc12` [Example 91, 6-(3-fluoroazetidin-1-yl)-N-((aR)-6-(4-oxo-3,4-dihydrophthalazin-1-yl)spiro[3.3]heptan-2-yl)pyrazolo[1,5-a]pyridine-3-carboxamide], the IC50 fell in the range of 0.2 to 2 nM. Turning to `O=C(NC1CC2(C1)CC(c1n[nH]c(=O)c3ccccc13)C2)c1cnn2cc(N3CC(F)(F)C3)ccc12` [Example 92, 6-(3,3-difluoroazetidin-1-yl)-N-((aR)-6-(4-oxo-3,4-dihydrophthalazin-1-yl)spiro[3.3]heptan-2-yl)pyrazolo[1,5-a]pyridine-3-carboxamide], the IC50 was 0.2 to 2 nM. As to `O=C(NC1CC2(C1)CC(c1n[nH]c(=O)c3ccccc13)C2)c1cn2c(n1)sc1ccccc12` [Example 93, N-((aR)-6-(4-oxo-3,4-dihydrophthalazin-1-yl)spiro[3.3]heptan-2-yl)benzo[d]imidazo[2,1-b]thiazole-2-carboxamide], the IC50 is 2.01 to 5 nM. With `O=C(NC1CC2(C1)CC(c1n[nH]c(=O)c3ccccc13)C2)c1cn2c(n1)sc1ccccc12` [Example 94, N-((aR)-6-(4-oxo-3,4-dihydrophthalazin-1-yl)spiro[3.3]heptan-2-yl)benzo[d]imidazo[2,1-b]thiazole-2-carboxamide], the IC50 was 5.1 to 15 nM.

For the molecule `CCc1nn2cc(C(=O)NC3CC4(C3)CC(c3n[nH]c(=O)c5ccccc35)C4)nc2s1` [Example 95, 2-ethyl-N-((aR)-6-(4-oxo-3,4-dihydrophthalazin-1-yl)spiro[3.3]heptan-2-yl)imidazo[2,1-b][1,3,4]thiadiazole-6-carboxamide], the IC50 lay within 5.1 to 15 nM. Then `O=C(NC1CC2(C1)CC(c1n[nH]c(=O)c3ccccc13)C2)c1cnn2ncccc12` [Example 96, N-((aR)-6-(4-oxo-3,4-dihydrophthalazin-1-yl)spiro[3.3]heptan-2-yl)pyrazolo[1,5-b]pyridazine-3-carboxamide], with 15.1 to 100 nM. Then `CC(C)(O)COc1ccc2c(C(=O)NC3CC4(C3)CC(c3n[nH]c(=O)c5ccccc35)C4)cnn2c1C1CC1` [Example 97, 7-cyclopropyl-6-(2-hydroxy-2-methylpropoxy)-N-((aR)-6-(4-oxo-3,4-dihydrophthalazin-1-yl)spiro[3.3]heptan-2-yl)pyrazolo[1,5-a]pyridine-3-carboxamide], with 0.2 to 2 nM. To `O=C(NC1CC2(C1)CC(c1n[nH]c(=O)c3ccccc13)C2)c1cnn2cc(OCC(O)(C(F)(F)F)C(F)(F)F)ccc12` [Example 98, N-((aR)-6-(4-oxo-3,4-dihydrophthalazin-1-yl)spiro[3.3]heptan-2-yl)-6-(3,3,3-trifluoro-2-hydroxy-2-(trifluoromethyl)propoxy)pyrazolo[1,5-a]pyridine-3-carboxamide] belongs 2.01 to 5 nM; to `O=C(NC1CC2(C1)CC(c1n[nH]c(=O)c3ccccc13)C2)c1cnn2cc(OCc3ccccc3)ccc12` [Example 99, 6-(benzyloxy)-N-((aR)-6-(4-oxo-3,4-dihydrophthalazin-1-yl)spiro[3.3]heptan-2-yl)pyrazolo[1,5-a]pyridine-3-carboxamide], 0.2 to 2 nM; to `O=C(NC1CC2(C1)CC(c1n[nH]c(=O)c3ccccc13)C2)c1ccnn1CC(F)F` [Example 100, 1-(2,2-difluoroethyl)-N-((aR)-6-(4-oxo-3,4-dihydrophthalazin-1-yl)spiro[3.3]heptan-2-yl)-1H-pyrazole-5-carboxamide], 100 to 2100 nM.

For `O=C(NC1CC2(C1)CC(c1n[nH]c(=O)c3ccccc13)C2)c1ccnn1CCC(F)(F)F` [Example 101, N-((aR)-6-(4-oxo-3,4-dihydrophthalazin-1-yl)spiro[3.3]heptan-2-yl)-1-(3,3,3-trifluoropropyl)-1H-pyrazole-5-carboxamide], the IC50 was in the range of 15.1 to 100 nM.

As to `COc1ccc(Cn2cc(C(=O)NC3CC4(C3)CC(c3n[nH]c(=O)c5ccccc35)C4)cn2)cc1` [Example 102, 1-(4-methoxybenzyl)-N-((aR)-6-(4-oxo-3,4-dihydrophthalazin-1-yl)spiro[3.3]heptan-2-yl)-1H-pyrazole-4-carboxamide], the IC50 lay within 5.1 to 15 nM.
